The values below come from US7049437B2, “Synthetic process and crystal form of condensed imidazopyridine derivatives” (Shionogi & Co., Ltd., priority 2000, dated 2006).

For orientation: melting point means the temperature of the solid-liquid transition.

The structures appear in SMILES notation. Where a name gives a salt, the structure may show the parent alone. A value given as a limit tells only on which side of the number the result lay.

Data set [1] can be described thus: Stability to light (fluorescent lamp exposure; appearance and HPLC remaining rate). The format is physicochemical. Particulars: for appearance / remaining rate (%) / appearance change under light exposure: phosphate monohydrate; for remaining rate (%): HPLC content vs reference kept at −20° C.; for appearance change under light exposure: summary of Table 2. On the procedure: In the following Experiments, contents of Compound (I) were determined by HPLC under the following conditions. • Device: WATERS 510, 481, 712 WISP, 741, FD20A or WATERS 510, 486, 712 WISP, 741, FD20A • Column: YMC-packed column AM-302 S-5 120A ODS (4.6 mm φ×150 mm) • Column temperature: room temperature • Mobile phase: methanol/water/TFA=200/800/1 (v/v) • Flow rate: 1.0 ml/min • Wave length: 230 nm • Concentration: 5–85 μg/ml • Injection Volume: 15 μl
After samples were prepared in the same manner of Experiment 1 and sealed, they were kept under 1800 Lux exposure (16 hours exposure per day of a fluorescent lamp, 28800 Lux*hr/day) or under 10000 Lux exposure (continuous exposure of a fluorescent lamp, 240000 Lux*hr/day, average temperature 30±3° C.). As a standard reference sample, each of crystals was put in a sealed container and kept at −20° C. The content of crystals were determined by the absolute calibration curve method using HPLC under the above conditions.

Data set [2] in a line: Stability to heat (crystals kept sealed at 40° C., relative humidity 75%). The format is physicochemical. The settings on record: relative humidity of 75%, 6 months, sealed glass container, phosphate monohydrate. On the procedure: Prism crystals and needle crystals of Compound (Ia) were used for samples. About 25 mg of each crystal was put in a small glass container with polyethylene cap. Containers were capped, sealed with PARAFILM and kept at 40° C., relative humidity of 75% for 6 months.

For `c1cc(-c2nc3c4c(ncc3[nH]2)CCOC4)no1` (hydrate or solvate) [Example 1, 2-(3-isoxazolyl)-3,6,7,9-tetrahydroimidazo[4,5-d]pyrano[4,3-b]pyridine], the melting point is > 300 °C.

Regarding `c1cc(-c2nc3c4c(ncc3[nH]2)CCOC4)no1` [Prism crystals, 2-(3-isoxazolyl)-3,6,7,9-tetrahydroimidazo[4,5-d]pyrano[4,3-b]pyridine phosphate monohydrate], the appearance result is “− or ±” in data set [1] (1800 Lux (16 hours exposure per day), 3 months) and “± or +” in data set [1] (10000 Lux (continuous exposure, 30±3° C.), 2 weeks). The “remaining rate (%)” value in data set [1] (1800 Lux, 1 month) was 100.0%; in data set [1] (1800 Lux, 2 months), 99.9%; in data set [1] (1800 Lux, 3 months), 100.1%; in data set [1] (1800 Lux, 4 months), 100.1%; in data set [1] (10000 Lux, 1 week), 99.5%; in data set [1] (10000 Lux, 2 weeks), 99.7%. In addition, the “remaining rate (%)” value in data set [1] (10000 Lux, 3 weeks) is 99.2%. Besides, the “appearance change under light exposure” value in data set [1] is “scarcely changed appearance”. Also, the appearance transition result in data set [2] is “not observed appearance transition”.

Compound `c1cc(-c2nc3c4c(ncc3[nH]2)CCOC4)no1` (as salt: phosphate) (hydrate or solvate) [Needle crystals, 2-(3-isoxazolyl)-3,6,7,9-tetrahydroimidazo[4,5-d]pyrano[4,3-b]pyridine phosphate monohydrate] had a melting point of 234 to 236 °C.

Turning to `c1cc(-c2nc3c4c(ncc3[nH]2)CCOC4)no1` [Needle crystals, 2-(3-isoxazolyl)-3,6,7,9-tetrahydroimidazo[4,5-d]pyrano[4,3-b]pyridine phosphate monohydrate], the appearance result is on record as “± or +” in data set [1] (1800 Lux (16 hours exposure per day), 1 month); “± or +” in data set [1] (10000 Lux (continuous exposure, 30±3° C.), 1 week); “+ or ++” in data set [1] (10000 Lux (continuous exposure, 30±3° C.), 3 weeks). Moreover, the “remaining rate (%)” value is recorded as 98.6% in data set [1] (1800 Lux, 1 month); 98.3% in data set [1] (1800 Lux, 2 months); 96.9% in data set [1] (1800 Lux, 3 months); 97.0% in data set [1] (1800 Lux, 4 months); 99.3% in data set [1] (10000 Lux, 1 week); 98.0% in data set [1] (10000 Lux, 2 weeks). Further, in data set [1] (10000 Lux, 3 weeks), the “remaining rate (%)” value came to 97.4%. Further, the “remaining rate under light exposure” value in data set [1] (after 3 months) is listed as “decreased”. For the same compound, the “appearance change under light exposure” value in data set [1] is on record as “changed the color to yellow”. The appearance transition entry in data set [2] is recorded as “changed its color to pale yellow”.
